Laboratory results reported in patent US6620828B2, “Thiazole compounds and pharmaceutical compositions for inhibiting protein kinases and methods for their use” (Agouron Pharmaceuticals, Inc., priority 1999, dated 2003).

These compounds were tested against T1, CDK4/Cyclin D3 complex (Homo sapiens, UniProt P11802) (assay: CDK4/Cyclin D assay). Conditions: 1.0 μM; combinatorial library compounds.
T1 construct: made in house; host or cells: insect cells co-infected with baculovirus vectors
Assay type: biochemical
In short: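 Insect-cell-expressed CDK4/cyclin D3 (50 nM) phosphorylating His-tagged Rb fragment (residues 386-928) with 25 μM [^32P]ATP in HEPES pH 7.4, MgCl2, 2% DMSO; 20 min at 30 °C, EDTA stop. Filter-captured 32P by phosphorimager; apparent Ki from competitive or tight-binding inhibition fits.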

T1 sequence (P11802 whole entry): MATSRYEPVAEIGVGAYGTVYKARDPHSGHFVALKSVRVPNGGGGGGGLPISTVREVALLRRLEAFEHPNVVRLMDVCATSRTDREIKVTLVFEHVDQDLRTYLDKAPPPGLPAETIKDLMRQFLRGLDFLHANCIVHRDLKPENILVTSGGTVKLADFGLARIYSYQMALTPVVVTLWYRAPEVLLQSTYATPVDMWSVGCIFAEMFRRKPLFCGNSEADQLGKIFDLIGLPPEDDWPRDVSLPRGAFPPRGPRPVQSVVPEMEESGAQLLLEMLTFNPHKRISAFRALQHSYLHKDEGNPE
T1 sequence (P30281 whole entry partner): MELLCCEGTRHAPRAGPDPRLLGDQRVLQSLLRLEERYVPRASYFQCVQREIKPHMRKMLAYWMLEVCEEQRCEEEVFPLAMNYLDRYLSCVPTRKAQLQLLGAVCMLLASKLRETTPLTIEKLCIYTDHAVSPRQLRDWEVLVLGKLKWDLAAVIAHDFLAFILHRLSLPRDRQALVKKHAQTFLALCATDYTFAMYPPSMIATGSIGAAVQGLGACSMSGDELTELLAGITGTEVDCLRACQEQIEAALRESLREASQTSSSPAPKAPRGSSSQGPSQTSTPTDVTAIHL

| SMILES | inhibition at 1 µM [%] | CDK4 % Inhibition at 1.0 μM [%] |
| --- | --- | --- |
| Nc1nc(Nc2ccc(S(N)(=O)=O)cc2)sc1-c1nc(C2C=C([N+](=O)[O-])C=CC2)cs1 (stereo not drawn) | -28.6 |  |
| CC(C)c1ccc(Nc2nc(N)c(-c3nc(-c4ccccc4[N+](=O)[O-])cs3)s2)cc1 | 63 |  |
| Cc1onc(-c2ccccc2)c1-c1csc(-c2sc(Nc3ccc(C(C)C)cc3)nc2N)n1 | 49.8 |  |
| Cc1c(-c2csc(-c3sc(Nc4ccc(N(C)C)cc4)nc3N)n2)sc2ccc(Cl)cc12 [drawing 552] |  | 65.1 |
| Nc1nc(Nc2ccc(S(N)(=O)=O)cc2)sc1-c1nc(-c2ccc3c(c2)CCC(=O)N3)cs1 | 42.2 |  |
| CC(C)c1ccc(Nc2nc(N)c(-c3nc(-c4ccc(O)c(O)c4)cs3)s2)cc1 | 62.7 |  |
| Cc1cc(-c2csc(-c3sc(Nc4ccc(S(N)(=O)=O)cc4)nc3N)n2)cs1 | 59.6 |  |
| Cc1cc(-c2csc(-c3sc(Nc4ccc(N(C)C)cc4)nc3N)n2)c(C)s1 | 64.1 |  |
| CCN(CC)c1ccc(-c2csc(-c3sc(Nc4ccc(S(N)(=O)=O)cc4)nc3N)n2)cc1 | 29.3 |  |
| Nc1nc(Nc2ccc(S(N)(=O)=O)cc2)sc1-c1nc(-c2ccc(Cl)c(Cl)c2)cs1 | -3.1 |  |
| CCOC(=O)c1cc(-c2csc(-c3sc(Nc4ccc(C(C)C)cc4)nc3N)n2)on1 | 28.7 |  |
| Cc1c(-c2csc(-c3sc(Nc4ccc(S(N)(=O)=O)cc4)nc3N)n2)sc2ccccc12 | -0.3 |  |
| Cc1cc(-c2csc(-c3sc(Nc4ccc(S(N)(=O)=O)cc4)nc3N)n2)cc(C)c1O | 46 |  |
| Cc1c(F)cc(-c2csc(-c3sc(Nc4ccc(N(C)C)cc4)nc3N)n2)cc1Cl | 76.5 |  |
| COc1ccc2nc(-c3ccccc3)c(-c3csc(-c4sc(Nc5ccc(S(N)(=O)=O)cc5)nc4N)n3)cc2c1 | 53.4 |  |
| CCN(CC)c1ccc(-c2csc(-c3sc(Nc4ccc(C(C)C)cc4)nc3N)n2)cc1 | 73 |  |
| COc1ccc2nc(-c3ccccc3)c(-c3csc(-c4sc(Nc5ccc(N(C)C)cc5)nc4N)n3)cc2c1 | 81.8 |  |
| Cc1c(C)c(C)c(-c2csc(-c3sc(Nc4ccc(S(N)(=O)=O)cc4)nc3N)n2)c(C)c1C | 64.1 |  |

Each compound was assayed against T2, FL-CHK1 (Homo sapiens, UniProt O14757) (assay: CHK1 assay). Conditions: 20 μM; combinatorial library compounds.
T2 construct: C-terminally His-tagged full-length human CHK1 (FL-CHK1); 6xHis (C); made in house; host or cells: baculovirus/insect cells
T2 sequence (O14757 1-476): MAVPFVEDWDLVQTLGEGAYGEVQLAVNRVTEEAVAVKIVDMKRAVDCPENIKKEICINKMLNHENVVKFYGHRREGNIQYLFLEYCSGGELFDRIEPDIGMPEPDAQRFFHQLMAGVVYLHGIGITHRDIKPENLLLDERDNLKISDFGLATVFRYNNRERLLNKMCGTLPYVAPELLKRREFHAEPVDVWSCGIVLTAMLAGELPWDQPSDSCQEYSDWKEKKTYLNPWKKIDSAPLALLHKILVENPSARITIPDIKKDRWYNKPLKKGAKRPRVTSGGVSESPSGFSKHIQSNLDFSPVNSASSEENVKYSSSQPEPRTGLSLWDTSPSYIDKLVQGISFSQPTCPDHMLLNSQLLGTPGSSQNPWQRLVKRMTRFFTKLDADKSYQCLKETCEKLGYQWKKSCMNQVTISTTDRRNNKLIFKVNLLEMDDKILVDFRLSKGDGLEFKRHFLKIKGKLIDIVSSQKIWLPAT
Assay type: biochemical
In short: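 Full-length human CHK1 with C-terminal 6×His tag, made in baculovirus/insect cells, 10 nM, phosphorylating 0.125 mM Syntide-2 with 0.15 mM ATP in 50 mM Tris pH 7.5, 25 mM MgCl2, 400 mM NaCl. PK/LDH-coupled NADH oxidation read at 340 nm. Ki from initial rates over varied compound concentrations.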

| SMILES | inhibition at 20 µM [%] | CHK1 % Inhibition at 20 μM [%] |
| --- | --- | --- |
| Nc1nc(Nc2ccc(S(N)(=O)=O)cc2)sc1-c1nc(C2C=C([N+](=O)[O-])C=CC2)cs1 (stereo not drawn) | 10.8 |  |
| CC(C)c1ccc(Nc2nc(N)c(-c3nc(-c4ccccc4[N+](=O)[O-])cs3)s2)cc1 | 32.2 |  |
| Cc1onc(-c2ccccc2)c1-c1csc(-c2sc(Nc3ccc(C(C)C)cc3)nc2N)n1 | -0.9 |  |
| Cc1c(-c2csc(-c3sc(Nc4ccc(N(C)C)cc4)nc3N)n2)sc2ccc(Cl)cc12 [drawing 552] |  | 26.8 |
| Nc1nc(Nc2ccc(S(N)(=O)=O)cc2)sc1-c1nc(-c2ccc3c(c2)CCC(=O)N3)cs1 | 15.3 |  |
| CC(C)c1ccc(Nc2nc(N)c(-c3nc(-c4ccc(O)c(O)c4)cs3)s2)cc1 | 31.6 |  |
| Cc1cc(-c2csc(-c3sc(Nc4ccc(S(N)(=O)=O)cc4)nc3N)n2)cs1 | 26.6 |  |
| Cc1cc(-c2csc(-c3sc(Nc4ccc(N(C)C)cc4)nc3N)n2)c(C)s1 | 43.9 |  |
| CCN(CC)c1ccc(-c2csc(-c3sc(Nc4ccc(S(N)(=O)=O)cc4)nc3N)n2)cc1 | 6.1 |  |
| Nc1nc(Nc2ccc(S(N)(=O)=O)cc2)sc1-c1nc(-c2ccc(Cl)c(Cl)c2)cs1 | 11.7 |  |
| CCOC(=O)c1cc(-c2csc(-c3sc(Nc4ccc(C(C)C)cc4)nc3N)n2)on1 | -5.7 |  |
| Cc1c(-c2csc(-c3sc(Nc4ccc(S(N)(=O)=O)cc4)nc3N)n2)sc2ccccc12 | 5.6 |  |
| Cc1cc(-c2csc(-c3sc(Nc4ccc(S(N)(=O)=O)cc4)nc3N)n2)cc(C)c1O | 13.4 |  |
| Cc1c(F)cc(-c2csc(-c3sc(Nc4ccc(N(C)C)cc4)nc3N)n2)cc1Cl | 27 |  |
| COc1ccc2nc(-c3ccccc3)c(-c3csc(-c4sc(Nc5ccc(S(N)(=O)=O)cc5)nc4N)n3)cc2c1 | 9.7 |  |
| CCN(CC)c1ccc(-c2csc(-c3sc(Nc4ccc(C(C)C)cc4)nc3N)n2)cc1 | -5.3 |  |
| COc1ccc2nc(-c3ccccc3)c(-c3csc(-c4sc(Nc5ccc(N(C)C)cc5)nc4N)n3)cc2c1 | 26 |  |
| Cc1c(C)c(C)c(-c2csc(-c3sc(Nc4ccc(S(N)(=O)=O)cc4)nc3N)n2)c(C)c1C | 29 |  |

The compounds below were run against T3, phosphorylated VEGF-R2Δ50 (FLVK-P) (Homo sapiens, UniProt P35968, DEL940-989/E990V) (assay: VEGF-R2 coupled spectrophotometric (FLVK-P) assay). Conditions: 20 μM; combinatorial library compounds.
T3 construct: VEGF-R2Δ50 contains residues 806-939 and 990-1171; made in house; host or cells: baculovirus/insect cells
Assay type: biochemical
In short: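 Baculovirus-expressed human VEGF-R2Δ50 (residues 806-939/990-1171, E990V) was autophosphorylated with 3 mM ATP, 40 mM MgCl2 for 2 h at 4° C. ADP formation was coupled via PK/LDH to NADH oxidation, read at 340 nm, with 5.1 mM poly(E4Y1), 1 mM ATP, 25 mM MgCl2, Hepes pH 7.5. Ki came from activity across compound concentrations.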

T3 sequence (P35968 with tags, fused parts or gaps DEL940-989/E990V limits assumed): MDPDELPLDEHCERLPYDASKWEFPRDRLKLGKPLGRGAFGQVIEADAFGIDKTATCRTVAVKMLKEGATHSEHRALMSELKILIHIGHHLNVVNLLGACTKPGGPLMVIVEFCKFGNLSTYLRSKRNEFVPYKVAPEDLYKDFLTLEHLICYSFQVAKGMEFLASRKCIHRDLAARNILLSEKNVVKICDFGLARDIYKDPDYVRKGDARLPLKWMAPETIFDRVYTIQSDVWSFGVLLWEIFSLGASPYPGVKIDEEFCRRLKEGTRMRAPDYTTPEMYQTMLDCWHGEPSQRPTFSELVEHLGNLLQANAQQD

| SMILES | VEGF % inhibition at 20 μM [%] |
| --- | --- |
| Cc1c(-c2csc(-c3sc(Nc4ccc(N(C)C)cc4)nc3N)n2)sc2ccc(Cl)cc12 [drawing 552] | 29 |

Same assay, conditions: read-out: VEGF % inhibition at 20 μM, 20 μM; combinatorial library compounds

| SMILES | inhibition at 20 µM [%] |
| --- | --- |
| Nc1nc(Nc2ccc(S(N)(=O)=O)cc2)sc1-c1nc(C2C=C([N+](=O)[O-])C=CC2)cs1 (stereo not drawn) | 30 |
| CC(C)c1ccc(Nc2nc(N)c(-c3nc(-c4ccccc4[N+](=O)[O-])cs3)s2)cc1 | 16 |
| Cc1onc(-c2ccccc2)c1-c1csc(-c2sc(Nc3ccc(C(C)C)cc3)nc2N)n1 | 5 |
| Nc1nc(Nc2ccc(S(N)(=O)=O)cc2)sc1-c1nc(-c2ccc3c(c2)CCC(=O)N3)cs1 | 7 |
| CC(C)c1ccc(Nc2nc(N)c(-c3nc(-c4ccc(O)c(O)c4)cs3)s2)cc1 | 28 |
| Cc1cc(-c2csc(-c3sc(Nc4ccc(S(N)(=O)=O)cc4)nc3N)n2)cs1 | 34 |
| Cc1cc(-c2csc(-c3sc(Nc4ccc(N(C)C)cc4)nc3N)n2)c(C)s1 | 32 |
| CCN(CC)c1ccc(-c2csc(-c3sc(Nc4ccc(S(N)(=O)=O)cc4)nc3N)n2)cc1 | 10 |
| Nc1nc(Nc2ccc(S(N)(=O)=O)cc2)sc1-c1nc(-c2ccc(Cl)c(Cl)c2)cs1 | 9 |
| CCOC(=O)c1cc(-c2csc(-c3sc(Nc4ccc(C(C)C)cc4)nc3N)n2)on1 | 9 |
| Cc1c(-c2csc(-c3sc(Nc4ccc(S(N)(=O)=O)cc4)nc3N)n2)sc2ccccc12 | 3 |
| Cc1cc(-c2csc(-c3sc(Nc4ccc(S(N)(=O)=O)cc4)nc3N)n2)cc(C)c1O | 25 |
| Cc1c(F)cc(-c2csc(-c3sc(Nc4ccc(N(C)C)cc4)nc3N)n2)cc1Cl | 9 |
| COc1ccc2nc(-c3ccccc3)c(-c3csc(-c4sc(Nc5ccc(S(N)(=O)=O)cc5)nc4N)n3)cc2c1 | 3 |
| CCN(CC)c1ccc(-c2csc(-c3sc(Nc4ccc(C(C)C)cc4)nc3N)n2)cc1 | 9 |
| COc1ccc2nc(-c3ccccc3)c(-c3csc(-c4sc(Nc5ccc(N(C)C)cc5)nc4N)n3)cc2c1 | 14 |
| Cc1c(C)c(C)c(-c2csc(-c3sc(Nc4ccc(S(N)(=O)=O)cc4)nc3N)n2)c(C)c1C | 33 |

What follows are compounds tested against CDK2/Cyclin A complex (Homo sapiens, UniProt P24941) (assay: CDK2/Cyclin A assay). Conditions: 1.0 μM; combinatorial library compounds.
Assay type: biochemical
In short: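 Radiometric assay: 150 nM CDK2/cyclin A (insect-cell CDK2, truncated cyclin A) phosphorylates His-tagged Rb fragment (residues 386-928) with 25 μM ATP plus [32P]ATP, pH 7.4 HEPES, 2% DMSO, 30 °C for 20 min. Filter-captured product counted by phosphorimager; apparent Ki from competitive or tight-binding inhibition fits.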

| SMILES | inhibition at 1 µM [%] | CDK2 % Inhibition at 1.0 μM [%] |
| --- | --- | --- |
| Nc1nc(Nc2ccc(S(N)(=O)=O)cc2)sc1-c1nc(C2C=C([N+](=O)[O-])C=CC2)cs1 (stereo not drawn) | 17.8 |  |
| CC(C)c1ccc(Nc2nc(N)c(-c3nc(-c4ccccc4[N+](=O)[O-])cs3)s2)cc1 | 17.7 |  |
| Cc1onc(-c2ccccc2)c1-c1csc(-c2sc(Nc3ccc(C(C)C)cc3)nc2N)n1 | 11.1 |  |
| Cc1c(-c2csc(-c3sc(Nc4ccc(N(C)C)cc4)nc3N)n2)sc2ccc(Cl)cc12 [drawing 552] |  | 37.3 |
| Nc1nc(Nc2ccc(S(N)(=O)=O)cc2)sc1-c1nc(-c2ccc3c(c2)CCC(=O)N3)cs1 | 56.6 |  |
| CC(C)c1ccc(Nc2nc(N)c(-c3nc(-c4ccc(O)c(O)c4)cs3)s2)cc1 | 23.8 |  |
| Cc1cc(-c2csc(-c3sc(Nc4ccc(S(N)(=O)=O)cc4)nc3N)n2)cs1 | 68.2 |  |
| Cc1cc(-c2csc(-c3sc(Nc4ccc(N(C)C)cc4)nc3N)n2)c(C)s1 | 24 |  |
| CCN(CC)c1ccc(-c2csc(-c3sc(Nc4ccc(S(N)(=O)=O)cc4)nc3N)n2)cc1 | 34.8 |  |
| Nc1nc(Nc2ccc(S(N)(=O)=O)cc2)sc1-c1nc(-c2ccc(Cl)c(Cl)c2)cs1 | 1.3 |  |
| CCOC(=O)c1cc(-c2csc(-c3sc(Nc4ccc(C(C)C)cc4)nc3N)n2)on1 | 15 |  |
| Cc1c(-c2csc(-c3sc(Nc4ccc(S(N)(=O)=O)cc4)nc3N)n2)sc2ccccc12 | 9.2 |  |
| Cc1cc(-c2csc(-c3sc(Nc4ccc(S(N)(=O)=O)cc4)nc3N)n2)cc(C)c1O | 40.7 |  |
| Cc1c(F)cc(-c2csc(-c3sc(Nc4ccc(N(C)C)cc4)nc3N)n2)cc1Cl | 8.2 |  |
| COc1ccc2nc(-c3ccccc3)c(-c3csc(-c4sc(Nc5ccc(S(N)(=O)=O)cc5)nc4N)n3)cc2c1 | 61.4 |  |
| CCN(CC)c1ccc(-c2csc(-c3sc(Nc4ccc(C(C)C)cc4)nc3N)n2)cc1 | 12.2 |  |
| COc1ccc2nc(-c3ccccc3)c(-c3csc(-c4sc(Nc5ccc(N(C)C)cc5)nc4N)n3)cc2c1 | 24.6 |  |
| Cc1c(C)c(C)c(-c2csc(-c3sc(Nc4ccc(S(N)(=O)=O)cc4)nc3N)n2)c(C)c1C | 77.2 |  |
